Laboratory results taken from US20250361209A1, “CRYSTAL FORMS OF N-(3-FLUOROPHENYL)-6-(6,7-DIMETHOXYQUINOLIN-4-OXY)-3,4-DIHYDROQUINOLINE-1(2H)-CARBOXAMIDE METHANESULFONATE AND PREPARATION METHOD THEREOF” (Shanghai Yi Feng Biotechnology Co., Ltd., priority 2023, published 2025).
Read-outs that look alike come from different tables or passages of the source.

Test: Comparison of oral absorption of K-13 (free base) and its methanesulfonate, plasma concentration-time and PK
Type: in vivo, BALB/c mice
Settings: 10 mg · kg^−1 PO; for concentration at 0 h: BALB/c, mouse, plasma, po, 10 mg · kg^−1, BALB/c mice
Text: Comparison of oral absorption of K-13 (free base) and its methanesulfonate (N-(3-fluorophenyl)-6-(6. 7-dimethoxyquinolin-4-oxy)-3.4-dihydroquinoline-1(2H)-carboxamide methanesulfonate)

[1] = BALB/c mice, analyte K-13-1, methanesulfonate

increase of in vivo exposure AUClast versus free base (BALB/c mice): 2.46 times | increase of in vivo exposure Cmax versus free base (BALB/c mice): 3.14 times | plasma Concentration of K-13-1, PO-1 (BALB/c mice, 0.083 h, animal PO-1, methanesulfonate): 431 ng/mL | plasma Concentration of K-13-1, PO-2 (BALB/c mice, 0.083 h, animal PO-2, methanesulfonate): 414 ng/mL | plasma Concentration of K-13-1, Mean (BALB/c mice, 0.083 h, mean, methanesulfonate): 423 ng/mL | plasma Concentration of K-13-1, PO-1 (BALB/c mice, 0.25 h, animal PO-1, methanesulfonate): 2175 ng/mL | plasma Concentration of K-13-1, PO-2 (BALB/c mice, 0.25 h, animal PO-2, methanesulfonate): 2059 ng/mL | plasma Concentration of K-13-1, Mean (BALB/c mice, 0.25 h, mean, methanesulfonate): 2117 ng/mL | plasma Concentration of K-13-1, PO-1 (BALB/c mice, 0.5 h, animal PO-1, methanesulfonate): 1868 ng/mL | plasma Concentration of K-13-1, PO-2 (BALB/c mice, 0.5 h, animal PO-2, methanesulfonate): 1775 ng/mL | plasma Concentration of K-13-1, Mean (BALB/c mice, 0.5 h, mean, methanesulfonate): 1822 ng/mL | plasma Concentration of K-13-1, PO-1 (BALB/c mice, 1 h, animal PO-1, methanesulfonate): 1824 ng/mL | plasma Concentration of K-13-1, PO-2 (BALB/c mice, 1 h, animal PO-2, methanesulfonate): 1317 ng/mL | plasma Concentration of K-13-1, Mean (BALB/c mice, 1 h, mean, methanesulfonate): 1571 ng/mL | plasma Concentration of K-13-1, PO-1 (BALB/c mice, 2 h, animal PO-1, methanesulfonate): 922 ng/mL | plasma Concentration of K-13-1, PO-2 (BALB/c mice, 2 h, animal PO-2, methanesulfonate): 1319 ng/mL | plasma Concentration of K-13-1, Mean (BALB/c mice, 2 h, mean, methanesulfonate): 1121 ng/mL | plasma Concentration of K-13-1, PO-1 (BALB/c mice, 4 h, animal PO-1, methanesulfonate): 884 ng/mL | plasma Concentration of K-13-1, PO-2 (BALB/c mice, 4 h, animal PO-2, methanesulfonate): 981 ng/mL | plasma Concentration of K-13-1, Mean (BALB/c mice, 4 h, mean, methanesulfonate): 932 ng/mL | plasma Concentration of K-13-1, PO-1 (BALB/c mice, 8 h, animal PO-1, methanesulfonate): 130 ng/mL | plasma Concentration of K-13-1, PO-2 (BALB/c mice, 8 h, animal PO-2, methanesulfonate): 89.0 ng/mL | plasma Concentration of K-13-1, Mean (BALB/c mice, 8 h, mean, methanesulfonate): 109 ng/mL | plasma Concentration of K-13-1, PO-2 (BALB/c mice, 24 h, animal PO-2, methanesulfonate): BLOQ | plasma Concentration of K-13-1, Mean (BALB/c mice, 24 h, mean, methanesulfonate): BLOQ | AUC0-inf [1]: 7350 ng·h/mL | AUC0-t [1]: 7051 ng·h/mL | Cmax [1]: 2117 ng/mL | F (oral bioavailability) [1]: 50% | Kel [1]: 0.364 h⁻¹ | T1/2 [1]: 1.9 h | Tmax [1]: 0.25 h | concentration at 0 h (animal PO-1, read-out: plasma Concentration of K-13-1, PO-1): 0 ng/mL | concentration at 0 h (animal PO-2, read-out: plasma Concentration of K-13-1, PO-2): 0 ng/mL | concentration at 0 h (mean, read-out: plasma Concentration of K-13-1, Mean): 0 ng/mL
SMILES: COc1cc2nccc(Oc3ccc4c(c3)CCCN4C(=O)Nc3cccc(F)c3)c2cc1OC [K-13-MS-1, N-(3-fluorophenyl)-6-(6,7-dimethoxyquinolin-4-oxy)-3,4-dihydroquinoline-1(2H)-carboxamide methanesulfonate]
